Data: US10202387B2, “Heterocyclyl linked imidazopyridazine derivatives as PI3KB inhibitors” (Janssen Pharmaceutica NV, priority 2014, dated 2019)

Legend:
PIK3Cβ_h = biological target: T1, PIK3Cβ_h (Homo sapiens, UniProt P42338); assay: Enzyme binding assay (KINOMEscan); conditions: DiscoveRx
T1 construct: purchased DiscoveRx Corporation, San Diego (KINOMEscan service)
Method: (§1) Enzyme Binding Assays (KINOMEscan®)
(§2) Kinase enzyme binding affinities of compounds disclosed herein were determined using the KINOMEscan technology performed by DiscoveRx Corporation, San Diego, Calif., USA (www.kinomescan.com). Table A reports the obtained Kd values (nM), with the Kd being the inhibitor binding constant: […]

MTOR_h = biological target: T2, MTOR_h (Homo sapiens, UniProt P42345); assay: Enzyme binding assay (KINOMEscan); conditions: DiscoveRx
T2 construct: purchased DiscoveRx Corporation, San Diego (KINOMEscan service)
Method: as §1, §2

PIK3Cγ_h = biological target: T3, PIK3Cγ_h (Homo sapiens, UniProt P48736); assay: Enzyme binding assay (KINOMEscan); conditions: DiscoveRx
T3 construct: purchased DiscoveRx Corporation, San Diego (KINOMEscan service)
T3 sequence (P48736 whole entry): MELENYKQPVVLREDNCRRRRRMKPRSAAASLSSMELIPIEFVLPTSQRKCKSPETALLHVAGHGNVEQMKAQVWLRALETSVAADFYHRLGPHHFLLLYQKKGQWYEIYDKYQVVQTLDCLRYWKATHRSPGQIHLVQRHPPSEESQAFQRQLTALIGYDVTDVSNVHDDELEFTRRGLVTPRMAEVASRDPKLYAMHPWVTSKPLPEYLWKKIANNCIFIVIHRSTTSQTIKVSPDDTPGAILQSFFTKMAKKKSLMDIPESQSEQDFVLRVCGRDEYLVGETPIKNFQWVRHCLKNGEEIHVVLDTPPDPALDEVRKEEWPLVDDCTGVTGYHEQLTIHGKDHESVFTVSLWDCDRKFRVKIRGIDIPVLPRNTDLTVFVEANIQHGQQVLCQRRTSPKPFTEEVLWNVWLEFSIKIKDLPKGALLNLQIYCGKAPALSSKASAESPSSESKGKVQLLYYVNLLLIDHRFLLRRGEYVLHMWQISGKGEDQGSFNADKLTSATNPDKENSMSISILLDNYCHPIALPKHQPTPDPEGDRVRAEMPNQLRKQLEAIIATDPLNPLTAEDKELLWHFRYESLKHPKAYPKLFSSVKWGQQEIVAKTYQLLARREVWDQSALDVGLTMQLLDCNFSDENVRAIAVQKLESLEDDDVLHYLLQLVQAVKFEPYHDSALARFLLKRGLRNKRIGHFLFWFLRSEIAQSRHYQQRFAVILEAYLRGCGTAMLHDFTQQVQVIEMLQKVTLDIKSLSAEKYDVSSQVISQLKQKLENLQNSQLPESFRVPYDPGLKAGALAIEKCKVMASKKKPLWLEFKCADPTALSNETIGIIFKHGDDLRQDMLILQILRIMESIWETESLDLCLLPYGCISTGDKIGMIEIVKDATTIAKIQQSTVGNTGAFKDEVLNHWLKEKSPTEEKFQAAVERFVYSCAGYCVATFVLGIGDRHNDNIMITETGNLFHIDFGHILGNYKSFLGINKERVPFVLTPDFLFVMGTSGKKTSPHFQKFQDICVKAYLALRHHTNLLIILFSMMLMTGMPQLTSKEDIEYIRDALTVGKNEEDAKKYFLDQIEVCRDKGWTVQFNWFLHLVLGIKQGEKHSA
Method: as §1, §2

PIK3Cα_h = biological target: T4, PIK3Cα_h (Homo sapiens, UniProt P42336); assay: Enzyme binding assay (KINOMEscan); conditions: DiscoveRx
T4 construct: purchased DiscoveRx Corporation, San Diego (KINOMEscan service)
T4 sequence (P42336 whole entry): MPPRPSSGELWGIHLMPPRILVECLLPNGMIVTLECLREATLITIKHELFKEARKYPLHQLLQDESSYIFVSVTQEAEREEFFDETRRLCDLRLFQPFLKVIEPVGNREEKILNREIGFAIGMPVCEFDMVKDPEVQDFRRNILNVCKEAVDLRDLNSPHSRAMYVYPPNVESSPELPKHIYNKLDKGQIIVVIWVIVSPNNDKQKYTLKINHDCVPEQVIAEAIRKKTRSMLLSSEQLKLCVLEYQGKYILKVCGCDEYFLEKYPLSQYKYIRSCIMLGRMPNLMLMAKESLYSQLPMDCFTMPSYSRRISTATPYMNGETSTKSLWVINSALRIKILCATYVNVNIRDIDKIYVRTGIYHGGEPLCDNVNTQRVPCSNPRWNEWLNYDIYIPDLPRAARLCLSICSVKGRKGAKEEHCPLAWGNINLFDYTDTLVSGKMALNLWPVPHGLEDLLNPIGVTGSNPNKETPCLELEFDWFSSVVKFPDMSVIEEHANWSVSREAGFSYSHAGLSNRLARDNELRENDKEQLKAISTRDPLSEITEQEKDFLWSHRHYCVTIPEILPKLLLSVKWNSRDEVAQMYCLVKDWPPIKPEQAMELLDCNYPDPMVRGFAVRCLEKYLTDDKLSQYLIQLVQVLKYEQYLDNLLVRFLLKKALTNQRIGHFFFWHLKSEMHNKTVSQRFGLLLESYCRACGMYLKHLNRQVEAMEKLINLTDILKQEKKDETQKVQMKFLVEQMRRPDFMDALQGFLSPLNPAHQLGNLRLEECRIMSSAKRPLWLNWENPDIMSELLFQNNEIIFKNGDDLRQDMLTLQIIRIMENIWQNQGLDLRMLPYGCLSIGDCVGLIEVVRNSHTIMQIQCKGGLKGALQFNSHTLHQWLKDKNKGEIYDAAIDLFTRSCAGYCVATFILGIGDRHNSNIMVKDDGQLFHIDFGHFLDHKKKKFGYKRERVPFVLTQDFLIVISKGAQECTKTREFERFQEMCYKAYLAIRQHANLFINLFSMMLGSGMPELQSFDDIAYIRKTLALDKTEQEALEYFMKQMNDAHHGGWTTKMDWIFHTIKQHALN
Method: as §1, §2

PIK3Cδ_h = biological target: T5, PIK3Cδ_h (Homo sapiens, UniProt O00329); assay: Enzyme binding assay (KINOMEscan); conditions: DiscoveRx
T5 construct: purchased DiscoveRx Corporation, San Diego (KINOMEscan service)
T5 sequence (O00329 1-1044): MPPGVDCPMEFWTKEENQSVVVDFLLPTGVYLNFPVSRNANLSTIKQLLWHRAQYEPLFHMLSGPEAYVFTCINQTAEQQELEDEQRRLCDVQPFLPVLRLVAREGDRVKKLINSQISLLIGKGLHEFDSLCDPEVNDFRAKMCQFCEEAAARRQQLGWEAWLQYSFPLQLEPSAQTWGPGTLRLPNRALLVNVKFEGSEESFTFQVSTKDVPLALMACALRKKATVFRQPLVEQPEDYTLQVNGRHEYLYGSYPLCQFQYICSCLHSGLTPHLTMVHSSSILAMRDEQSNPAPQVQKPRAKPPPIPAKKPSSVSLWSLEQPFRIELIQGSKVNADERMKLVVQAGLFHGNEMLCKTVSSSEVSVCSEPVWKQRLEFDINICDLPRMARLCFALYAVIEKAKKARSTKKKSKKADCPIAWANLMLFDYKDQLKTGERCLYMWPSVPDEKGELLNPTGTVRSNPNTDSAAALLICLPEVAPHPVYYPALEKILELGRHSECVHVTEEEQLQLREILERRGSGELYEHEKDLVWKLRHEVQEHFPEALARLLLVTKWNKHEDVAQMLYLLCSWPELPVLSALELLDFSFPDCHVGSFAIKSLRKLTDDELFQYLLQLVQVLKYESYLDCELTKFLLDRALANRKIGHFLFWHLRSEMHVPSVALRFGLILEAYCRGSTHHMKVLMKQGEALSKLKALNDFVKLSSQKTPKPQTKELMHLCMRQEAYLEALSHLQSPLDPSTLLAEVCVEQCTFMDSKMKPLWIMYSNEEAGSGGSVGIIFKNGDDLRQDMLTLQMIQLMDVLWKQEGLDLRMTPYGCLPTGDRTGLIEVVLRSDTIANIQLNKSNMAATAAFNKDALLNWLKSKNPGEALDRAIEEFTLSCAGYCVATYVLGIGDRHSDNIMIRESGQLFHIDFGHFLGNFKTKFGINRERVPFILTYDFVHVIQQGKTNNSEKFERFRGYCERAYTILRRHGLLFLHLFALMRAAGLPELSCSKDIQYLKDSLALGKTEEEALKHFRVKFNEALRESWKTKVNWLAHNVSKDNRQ
Method: as §1, §2

[1] = tested on: Akt phosphorylated at Ser473 in PC-3 cells; assay: Cellular assay: phosphorylation of Akt (Ser473) in PC-3 cells, MSD ELISA; format: cell-based; conditions: Homo sapiens, 1 h, 60 min incubation with compound, read-out: IC50 pAkt_S473
Method: (§3) Cellular activity of PI3Kβ inhibitors was determined by quantifying the phosphorylation of Akt in PC-3 cells. Akt phosphorylated at Ser473 and Thr308 were measured using an enzyme-linked immunosorbent assay (ELISA; Meso Scale Discovery (MSD). Gaithersburg, Md.) and specific primary antibodies from MSD.
(§4) On day 1, PC3 cells (ATCC […]) were seeded into PerkinElmer MW96 plates at 25.000 cells per well, in 75 μl complete culture medium (DMEM (Dulbecco's Modified Eagle's Medium) high glucose. AQmedia™, D0819, Sigma-Aldrich) containing 10% heat inactivated FCS (Fetal Bovine Serum) and incubated at 37° C., 5% CO2 during 24 hours. On day 2, compound or DMSO (dimethyl sulfoxide) (0.3%) was added and cells were further incubated for 60 min at 37° C., 5% CO2 in a total volume of 100 μl of medium.
(§5) The phosphoprotein assay was executed according to vendor instructions in the Phospho-Akt (Ser473) Assay Whole Cell Lysate Kit (MSD #K15100D-3) and the Phospho-Akt (Thr308) Assay Whole Cell Lysate Kit (MSD #K151DYD-3) using the lysis, blocking and wash buffer provided.
(§6) Briefly, at the end of the cell treatment period, media were removed by aspiration and adherent cells were lysed in 50 μl ice-cold lysis buffer. MSD plates are supplied pre-coated with capture antibodies for Phospho-Akt (Ser473 and Thr308). After blocking, lysates from tissue culture plates were added and plates were washed. Then, a solution containing the detection antibody (anti-total Akt conjugated with an electrochemiluminescent compound-MSD Sulfo-tag label) was added. The signals were detected using an MSD SECTOR Imager 6000 and are proportional to the phospho-Akt titres.
(§7) Data were processed. The percentage of inhibition was plotted against the log concentration of test compounds, and the sigmoidal log concentration-effect curve of best fit was calculated by nonlinear regression analysis. From these concentration-response curves, the IC50 values were calculated. Five concentrations were used for curve fitting.

[2] = tested on: Akt phosphorylated at Thr308 in PC-3 cells; assay: Cellular assay: phosphorylation of Akt (Thr308) in PC-3 cells, MSD ELISA; format: cell-based; conditions: Homo sapiens, 1 h, 60 min incubation with compound, read-out: IC50 pAkt_Thr308
Method: as §3, §4, §5, §6, §7

T1 sequence (P42338 whole entry): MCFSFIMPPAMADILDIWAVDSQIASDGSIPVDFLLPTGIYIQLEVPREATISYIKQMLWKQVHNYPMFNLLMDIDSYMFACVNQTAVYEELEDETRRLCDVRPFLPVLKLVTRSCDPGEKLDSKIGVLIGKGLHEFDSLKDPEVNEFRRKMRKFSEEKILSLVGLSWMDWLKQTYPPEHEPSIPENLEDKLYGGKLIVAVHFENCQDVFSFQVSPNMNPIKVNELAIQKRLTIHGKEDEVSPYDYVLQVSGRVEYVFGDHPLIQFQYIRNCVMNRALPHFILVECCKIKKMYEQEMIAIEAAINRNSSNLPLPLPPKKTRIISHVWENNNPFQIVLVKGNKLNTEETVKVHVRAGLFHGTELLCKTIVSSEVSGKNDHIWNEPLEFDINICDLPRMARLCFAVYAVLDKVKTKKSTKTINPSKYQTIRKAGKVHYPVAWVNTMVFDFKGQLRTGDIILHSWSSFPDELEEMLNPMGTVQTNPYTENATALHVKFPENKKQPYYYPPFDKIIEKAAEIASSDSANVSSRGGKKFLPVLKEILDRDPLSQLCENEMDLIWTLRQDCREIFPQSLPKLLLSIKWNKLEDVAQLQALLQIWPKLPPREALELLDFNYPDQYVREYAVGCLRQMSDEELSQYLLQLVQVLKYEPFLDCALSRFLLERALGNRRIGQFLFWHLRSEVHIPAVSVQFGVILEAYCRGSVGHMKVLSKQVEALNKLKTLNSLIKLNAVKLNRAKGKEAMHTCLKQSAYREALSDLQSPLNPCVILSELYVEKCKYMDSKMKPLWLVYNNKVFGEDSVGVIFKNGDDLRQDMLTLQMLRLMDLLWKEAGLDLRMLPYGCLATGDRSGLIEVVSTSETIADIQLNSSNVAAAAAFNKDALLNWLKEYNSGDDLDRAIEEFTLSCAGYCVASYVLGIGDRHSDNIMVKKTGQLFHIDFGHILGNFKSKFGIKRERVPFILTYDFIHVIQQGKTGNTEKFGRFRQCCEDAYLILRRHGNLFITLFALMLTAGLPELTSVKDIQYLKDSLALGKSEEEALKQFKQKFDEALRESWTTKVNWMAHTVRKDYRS

Structure (SMILES): Cc1c(Cc2c(CNC(=O)[C@H]3CCCN3)nc3c(N)cc(N4CCOCC4)nn23)cccc1C(F)(F)F (stereo in doubt) [Compound 37]
- Kd (PIK3Cβ_h): 0.8 nM
- Kd (MTOR_h): 5130 nM
- Kd (PIK3Cγ_h): 4900 nM
- Kd (PIK3Cα_h): 5490 nM
- Kd (PIK3Cδ_h): 68 nM
- IC50 [1]: 158 nM
- IC50 [2]: 141 nM
- melting point: 212 °C

Structure (SMILES): Cc1c(Cc2c(CN3CCC4(CCS4(=O)=O)C3)nc3c(N)cc(N4CCOCC4)nn23)cccc1C(F)(F)F (stereo not drawn) [Compound 32]
- Kd (PIK3Cβ_h): 2.5 nM
- Kd (MTOR_h): > 30200 nM
- Kd (PIK3Cγ_h): > 30200 nM
- Kd (PIK3Cα_h): 15100 nM
- Kd (PIK3Cδ_h): 251 nM
- IC50 [1]: 91 nM
- IC50 [2]: 74 nM
- melting point: 214 °C

Structure (SMILES): Cc1c(F)cccc1Cc1c(CN2CC(O)C2)nc2c(N)cc(N3CCOCC3)nn12 [Compound 42]
- Kd (PIK3Cβ_h): 1.1 nM
- Kd (MTOR_h): 1230 nM
- Kd (PIK3Cγ_h): 2690 nM
- Kd (PIK3Cα_h): 4470 nM
- Kd (PIK3Cδ_h): 123 nM
- IC50 [1]: 117 nM
- IC50 [2]: 55 nM
- melting point: 214 °C

Structure (SMILES): Cc1c(Cc2c(CC(=O)N3CC(CO)C3)nc3c(N)cc(N4CCOCC4)nn23)cccc1C(F)(F)F [Compound 24]
- Kd (PIK3Cβ_h): 0.5 nM
- Kd (MTOR_h): 3980 nM
- Kd (PIK3Cγ_h): 17000 nM
- Kd (PIK3Cα_h): 3160 nM
- Kd (PIK3Cδ_h): 52 nM
- IC50 [1]: 49 nM
- IC50 [2]: 15 nM
- melting point: 130 °C

Structure (SMILES): Cc1c(Cc2c(CN3CCCC(CO)C3)nc3c(-c4ncc[nH]4)cc(N4CCOCC4)nn23)cccc1C(F)(F)F (stereo not drawn) [Compound 17]
- Kd (PIK3Cβ_h): < 1.5 nM
- Kd (MTOR_h): > 30200 nM
- Kd (PIK3Cγ_h): 6760 nM
- Kd (PIK3Cα_h): 813 nM
- Kd (PIK3Cδ_h): 79 nM
- IC50 [1]: 65 nM
- IC50 [2]: 58 nM
- melting point: 171 °C

Structure (SMILES): Cc1c(Cc2c(CNC(=O)[C@@H]3C[C@@H](O)CN3)nc3c(N)cc(N4CCOCC4)nn23)cccc1C(F)(F)F [Compound 36]
- Kd (PIK3Cβ_h): 0.1 nM
- Kd (MTOR_h): 3140 nM
- Kd (PIK3Cγ_h): 3000 nM
- Kd (PIK3Cα_h): 1390 nM
- Kd (PIK3Cδ_h): 5 nM
- IC50 [1]: ~73 nM
- IC50 [2]: ~50 nM
- melting point: 140 °C

Structure (SMILES): Cc1c(Cc2c(CN3CCC4(CCCCS4(=O)=O)C3)nc3c(N)cc(N4CCOCC4)nn23)cccc1C(F)(F)F (stereo not drawn) [Compound 33]
- Kd (PIK3Cβ_h): 3 nM
- Kd (MTOR_h): > 30200 nM
- Kd (PIK3Cγ_h): > 30200 nM
- Kd (PIK3Cα_h): 13500 nM
- Kd (PIK3Cδ_h): 398 nM
- IC50 [1]: 120 nM
- IC50 [2]: 100 nM
- melting point: 228 °C

Structure (SMILES): Cc1c(Cc2c(COC(=O)CN3CCN(C)CC3)nc3c(N)cc(N4CCOCC4)nn23)cccc1C(F)(F)F [Compound 40b]
- Kd (PIK3Cβ_h): 2.8 nM
- Kd (MTOR_h): 21900 nM
- Kd (PIK3Cγ_h): > 30200 nM
- Kd (PIK3Cα_h): 25100 nM
- Kd (PIK3Cδ_h): 479 nM
- IC50 [1]: 214 nM
- IC50 [2]: 105 nM
- melting point: 99 °C

Structure (SMILES): Cc1c(Cc2c(CN3CC(O)C3)nc3c(-c4ncc[nH]4)cc(N4CCOCC4)nn23)cccc1C(F)(F)F [Compound 19]
- Kd (PIK3Cβ_h): 1.6 nM
- Kd (MTOR_h): 4370 nM
- Kd (PIK3Cγ_h): 891 nM
- Kd (PIK3Cα_h): 513 nM
- Kd (PIK3Cδ_h): 52 nM
- IC50 [1]: 50 nM
- IC50 [2]: 54 nM
- melting point: 198 °C

Structure (SMILES): Cc1c(Cc2c(CN3CC4(CCS4(=O)=O)C3)nc3c(N)cc(N4CCOCC4)nn23)cccc1C(F)(F)F [Compound 2]
- Kd (PIK3Cβ_h): 2.1 nM
- Kd (MTOR_h): 21400 nM
- Kd (PIK3Cγ_h): > 30200 nM
- Kd (PIK3Cα_h): 5490 nM
- Kd (PIK3Cδ_h): 23 nM
- IC50 [1]: 6 nM
- IC50 [2]: ~4 nM
- melting point: 180 °C

Structure (SMILES): Cc1c(Cc2c(CN3CC(C)NC(C)C3)nc3c(-c4ccn[nH]4)cc(N4CCOCC4)nn23)cccc1C(F)(F)F (stereo not drawn) [Compound 25]
- Kd (PIK3Cβ_h): 2 nM
- Kd (MTOR_h): 407 nM
- Kd (PIK3Cγ_h): 5250 nM
- Kd (PIK3Cα_h): 1150 nM
- Kd (PIK3Cδ_h): 98 nM
- IC50 [1]: 214 nM
- IC50 [2]: 234 nM
- melting point: 159 °C

Structure (SMILES): CCc1c(F)cccc1Cc1c(CN2CC(O)C2)nc2c(N)cc(N3CCOCC3)nn12 [Compound 44]
- Kd (PIK3Cβ_h): 5.4 nM
- Kd (MTOR_h): 1050 nM
- Kd (PIK3Cγ_h): 537 nM
- Kd (PIK3Cα_h): 1700 nM
- Kd (PIK3Cδ_h): 275 nM
- IC50 [1]: 316 nM
- IC50 [2]: 145 nM
- melting point: 172 °C
